Results on 29 molecules are retold here after patent publication US20030134859A1 (SANKYO COMPANY, LIMITED, priority 2000, published 2003).

Structures can show the parent of a compound that is named as a salt.

Test [1] concerns Rat white adipocytes. The test is described as follows: Inhibition of the differentiation of adipocytes (Oil Red O). It counts as cell-based. Conditions: 100 nM test compound, 5 days, Oil Red O ABS550, control = 100%, blank = 0%, Table 3; for activity at 0.1 µM: Rattus norvegicus, Adipocyte, 120 h, read-out: Rate of Differentiation (%). In outline: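 Rat white preadipocytes, 5,000 cells/well, given differentiation medium with compound at 100 nM final (0.1% DMSO) for 5 days at 37 °C. Lipid stained with Oil Red O, eluted in DMSO, read at 550 nm; differentiation % relative to DMSO control (100%) and blank (0%).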

In test [2] the test system is Mouse preadipocyte strain 3T3-L1. The test is described as follows: Inhibition of differentiation as an indication of acetic acid uptake. The test is classed as cell-based. Conditions: control (0.01% dimethylsulfoxide) = 100%; for activity at 0.1 µM: Mus musculus, 3T3-L1, 0.1 μM test substance, read-out: Rate of Uptake (%) of [2-14C] acetic acid. The procedure, abridged: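 Differentiation is indexed by 1 hr [2-14C]acetic acid incorporation, measured by scintillation counting and given as uptake relative to 0.01% DMSO control (100%). Mouse 3T3-L1 preadipocytes, pre-grown 10 days, received 0.1 μM test substance throughout a 4-day insulin/IBMX/dexamethasone induction, followed by 2 days' maintenance culture.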

`Cc1ccc2nc(-c3ccc(NC(=O)c4cc([N+](=O)[O-])ccc4Cl)cc3)sc2c1` [Example 10, N-[4-(6-Methylbenzothiazol-2-yl)phenyl]-(2-chloro-5-nitrophenyl)carboxamide]: the results for the activity at 0.1 µM in test [1] and in test [2] were 51.1% and 85.3%, respectively.

In the case of `N#Cc1ccc(NC(=O)c2cc([N+](=O)[O-])ccc2Cl)cc1` [Example 20, N-(4-Cyanophenyl)-(2-chloro-5-nitrophenyl)carboxamide], the activity at 0.1 µM in test [1] worked out at 57.7%; in test [2] it was 65.9%.

On to `Nc1ccc(NC(=O)c2cc([N+](=O)[O-])ccc2Cl)cc1` [Example 58, N-(4-Aminophenyl)-(2-chloro-5-nitrophenyl)carboxamide mono-hydrochloride], for which, in test [1], the activity at 0.1 µM stood at 51.7%.

Consider `CC(C)(C)OC(=O)Nc1ccc(-c2ccc(NC(=O)c3cc([N+](=O)[O-])ccc3Cl)cc2)cc1` [Example 87, N-[4-[4-(tert-Butoxycarbonylamino)phenyl]phenyl]-(2-chloro-5-nitrophenyl)carboxamide], for which the activity at 0.1 µM in test [1] is 75.2%; in test [2], 57.1%.

On to `O=C(Nc1cccc(O)c1)c1cc([N+](=O)[O-])ccc1Cl` [Example 191, N-(3-Hydroxyphenyl)-(2-chloro-5-nitrophenyl)carboxamide], for which, in test [1], the activity at 0.1 µM came to 63.4%.

`CCCCCCNc1ccc(-c2ccc(NC(=O)c3cc([N+](=O)[O-])ccc3Cl)cc2)cc1` [Example 195, N-[4-[4-(N-Hexylamino)phenyl]phenyl]-(2-chloro-5-nitrophenyl)carboxamide]: in test [1], the activity at 0.1 µM was determined as 36.5%.

On to `CCCCCCN(C)c1ccc(-c2ccc(NC(=O)c3cc([N+](=O)[O-])ccc3Cl)cc2)cc1` [Example 196, N-[4-[4-(N-Hexyl-N-methylamino)phenyl]phenyl]-(2-chloro-5-nitrophenyl)carboxamide], for which, in test [1], the activity at 0.1 µM came to 53.4%.

With `CCCCCCN(CC)c1ccc(-c2ccc(NC(=O)c3cc([N+](=O)[O-])ccc3Cl)cc2)cc1` [Example 197, N-[4-[4-(N-Ethyl-N-hexylamino)phenyl]phenyl]-(2-chloro-5-nitrophenyl)carboxamide], the activity at 0.1 µM in test [1] turned out to be 45.7%.

Turning to `CCCCCCCCNc1ccc(-c2ccc(NC(=O)c3cc([N+](=O)[O-])ccc3Cl)cc2)cc1` [Example 219, N-[4-[4-(N-Octylamino)phenyl]phenyl]-(2-chloro-5-nitrophenyl)carboxamide], the activity at 0.1 µM in test [1] amounted to 36.6%.

Turning to `CCCCCCCCN(CCCCCC)c1ccc(-c2ccc(NC(=O)c3cc([N+](=O)[O-])ccc3Cl)cc2)cc1` [Example 220, N-[4-[4-(N-Hexyl-N-octylamino)phenyl]phenyl]-(2-chloro-5-nitrophenyl)carboxamide mono-hydrochloride], the activity at 0.1 µM in test [1] was 38.4%.

For `CCCCCCCCN(CCCC)c1ccc(-c2ccc(NC(=O)c3cc([N+](=O)[O-])ccc3Cl)cc2)cc1` [Example 222, N-[4-[4-(N-Butyl-N-octylamino)phenyl]phenyl]-(2-chloro-5-nitrophenyl)carboxamide], the activity at 0.1 µM in test [1] was determined as 48.6%.

In the case of `CCCCCCCCN(CCCC)c1ccc(-c2ccc(NC(=O)c3cc([N+](=O)[O-])ccc3Cl)cc2)cc1.Cl` [Example 223, N-[4-[4-(N-Butyl-N-octylamino)phenyl]phenyl]-(2-chloro-5-nitrophenyl)carboxamide mono-hydrochloride], the “Rate of Differentiation (%)” value in test [1] is on record as 35.0%.

`CCCCCCCCN(CCC)c1ccc(-c2ccc(NC(=O)c3cc([N+](=O)[O-])ccc3Cl)cc2)cc1` [Example 224, N-[4-[4-(N-Octyl-N-propylamino)phenyl]phenyl]-(2-chloro-5-nitrophenyl)carboxamide]: the activity at 0.1 µM in test [1] was 40.9%.

With `CCCCCCCCN(CC)c1ccc(-c2ccc(NC(=O)c3cc([N+](=O)[O-])ccc3Cl)cc2)cc1` [Example 225, N-[4-[4-(N-Ethyl-N-octylamino)phenyl]phenyl]-(2-chloro-5-nitrophenyl)carboxamide], the activity at 0.1 µM in test [1] came to 45.9%.

With `O=C(Nc1ccc(N2CCN(C(=O)c3ccncc3)CC2)cc1)c1cc([N+](=O)[O-])ccc1Cl` [Example 228, N-[4-[4-(Pyridin-4-ylcarbonyl)piperazin-1-yl]phenyl]-(2-chloro-5-nitrophenyl)carboxamide], the activity at 0.1 µM in test [1] came to 17.5%.

Take `O=C(Nc1ccc(CCO)cc1)c1cc([N+](=O)[O-])ccc1Cl` [Example 230, N-[4-(2-Hydroxyethyl)phenyl]-(2-chloro-5-nitrophenyl)carboxamide]: the activity at 0.1 µM in test [1] was 48.9%.

In the case of `O=C(Nc1ccc(-n2ccnc2)cc1)c1cccc(NC(=O)c2cc([N+](=O)[O-])ccc2Cl)c1` [Example 231, N-[[3-[4-(Imidazol-1-yl)phenyl]aminocarbonyl]phenyl]-(2-chloro-5-nitrophenyl)carboxamide], the activity at 0.1 µM in test [1] is 20.1%.

As to `CCN(c1ccc(NS(=O)(=O)c2ccc(NC(=O)c3cc([N+](=O)[O-])ccc3Cl)cc2)cc1)C(C)C` [Example 232, N-[[4-[4-(N-Ethyl-N-isopropylamino)phenyl]aminosulfonyl]phenyl]-(2-chloro-5-nitrophenyl)carboxamide], in test [1], the activity at 0.1 µM stood at 45.4%.

`Nc1nc(-c2cccc(NC(=O)c3cc([N+](=O)[O-])ccc3Cl)c2)cs1` [Example 233, N-[3-(2-Amiothiazol-4-yl)phenyl]-(2-chloro-5-nitrophenyl)carboxamide]: in test [1], the activity at 0.1 µM turned out to be 47.4%.

On to `CC(C)(C)OC(=O)Nc1cccc(-c2csc(NC(=O)c3cc([N+](=O)[O-])ccc3Cl)n2)c1` [Example 234, N-[4-(3-tert-Butoxycarbonylaminophenyl)thiazol-2-yl]-(2-chloro-5-nitrophenyl)carboxamide], for which the activity at 0.1 µM in test [1] came out at 60.5%.

In the case of `CS(=O)(=O)N(c1ccc(-c2ccc(NC(=O)c3cc([N+](=O)[O-])ccc3Cl)cc2)cc1)S(C)(=O)=O` [Example 235, N-[4-[4-(N,N-Dimethanesulfonylamino)phenyl]phenyl]-(2-chloro-5-nitrophenyl)carboxamide], the activity at 0.1 µM in test [1] was found to be 3.6%.

Regarding `CC(O)c1cccc(NC(=O)c2cc([N+](=O)[O-])ccc2Cl)c1` (centres unmarked) [Example 239, N-[3-(1-Hydroxyethyl)phenyl]-(2-chloro-5-nitrophenyl)carboxamide], the activity at 0.1 µM in test [1] amounted to 52.8%.

For the molecule `O=C(Nc1ccc(NC(=S)Nc2cccnc2)cc1)c1cc([N+](=O)[O-])ccc1Cl` [Example 257, N-[4-[(Pyridin-3-yl)aminothiocarbonylamino]phenyl]-(2-chloro-5-nitrophenyl)carboxamide], the activity at 0.1 µM in test [1] was 59.8%.

For `O=C(Nc1ccc(-c2ccc(NC(=S)Nc3ccncc3)cc2)cc1)c1cc([N+](=O)[O-])ccc1Cl` [Example 258, N-[4-[4-[(Pyridin-4-yl)aminothiocarbonylamino]phenyl]phenyl]-(2-chloro-5-nitrophenyl)carboxamide], the activity at 0.1 µM in test [1] was found to be 39%.

Take `O=C(Nc1ccc(NC(=S)Nc2ccncc2)cc1)c1cc([N+](=O)[O-])ccc1Cl` [Example 259, N-[4-[(Pyridin-4-yl)aminothiocarbonylamino]phenyl]-(2-chloro-5-nitrophenyl)carboxamide]: in test [1], the activity at 0.1 µM was found to be 56.5%.

Regarding `NCCc1ccc(NC(=O)c2cc([N+](=O)[O-])ccc2Cl)cc1` [Example 267, N-[4-(2-Aminoethyl)phenyl]-(2-chloro-5-nitrophenyl)carboxamide], the activity at 0.1 µM in test [1] came to 47.3%.

Consider `O=C(Nc1ccc(CCNC(=S)Nc2cccnc2)cc1)c1cc([N+](=O)[O-])ccc1Cl` [Example 273, N-[4-[2-(Pyridin-3-yl)aminothiocarbonylaminoethyl]phenyl]-(2-chloro-5-nitrophenyl)carboxamide], for which the activity at 0.1 µM in test [1] turned out to be 47.9%.

For the molecule “N-(Ethoxyphenyl)-(2-chloro-5-nitrophenyl)carboxamide [Example 229]”, the “Rate of Differentiation (%)” value in test [1] came out at 62.7%.

Take “N-[4-(Pyrrolidinylsulfonyl)phenyl]-(2-chloro-5-nitrophenyl)carboxamide [Example 152]”: the “Rate of Uptake (%) of [2-14C] acetic acid” value in test [2] (0.1 μM test substance) came out at 69.6%.
